Peptide text beside a SMILES is read from it.

Usually logP stands for the decadic logarithm of the partition coefficient of the neutral form, usually between octanol and water. Read a high logP as a more lipophilic compound. `FC(F)(F)c1ccccc1Cl` displayed a logP of 3.53.

Take `CN(C)C(N(C)C)=S(I)c1ccc(C(=O)O)cc1` (centres undefined): the logP was -1.28.

Molecule `O=Cc1ccc([N+](=O)[O-])cc1` had a logP of 1.56.

Turning to `Cc1ccc([N+](=O)[O-])cn1`, the logP is 0.99.

Consider `c1ccc2c(c1)sc1ccccc12`, for which the logP came to 4.38.

`CCCCCl` showed a logP of 2.64.

With `CNC(=O)Oc1cc(C)c(C)c(C)c1`, the logP was found to be 2.66.

In the case of `O=C(Nc1ccccc1)N(Cc1ccc(Cl)cc1)C1CCCC1`, the logP came to 4.82.

`O=C1CCC(=O)N1c1ccccc1[N+](=O)[O-]` displayed a logP of 0.36.

`c1cscn1` gave a lipophilicity (logP) of 0.44.

`Clc1ccc2cc[nH]c2c1` showed a logP of 3.25.

Molecule `COc1ccc(NC(C)=O)cc1` came in with a logP of 1.03.

The molecule `CC12C=CC(=O)C=C1CCC1C2C(O)CC2(C)C1CCC2(O)C(=O)COC1OC(CO)C(O)C(O)C1O` (centres undefined) displayed a logP of 0.27.

For `CC(=O)OCC1OC(n2ccnc2[N+](=O)[O-])C(OC(C)=O)C(OC(C)=O)C1OC(C)=O` (centres undefined), the logP is 0.52.

`CCSC(=O)N(CC(C)C)CC(C)C`: the logP is 4.15.

The molecule `Nc1nc(N)nc(-c2cccc(F)c2)n1` showed a logP of 1.73.

As to `CCCCOCCO`, the logP was 0.83.

In the case of `Brc1ccc2ncccc2c1`, the logP is 2.83.

As to `CCOCCN(CCOCC)N=O`, the logP was determined as 0.79.

For `N#CCCN(CCC#N)N=O`, the lipophilicity (logP) came to 0.08.

`CCOP(=S)(OCC)SCSc1ccc(Cl)cc1` yielded a logP of 5.33.

Molecule `CC(C#N)c1ncc([N+](=O)[O-])[nH]1` (centres undefined) yielded a logP of -0.07.

The molecule `COc1cccc(COC(C)=O)c1` registered a logP of 2.02.

In turn, `CCc1ccccc1CC` showed a logP of 3.72.

With `CC(C)N(Cc1cccnc1)C(C)C`, the logP was found to be 2.27.

In turn, `COP(=S)(OC)SCN1C(=O)c2ccccc2C1=O` came in with a logP of 2.78.

On to `NC1=C(Cl)C(=O)c2ccccc2C1=O`, for which the logP worked out at 2.12.

`O=Nc1ccc2ccccc2c1O` registered a logP of 2.46.

Take `CCOc1c(OC)cc(CCN)cc1OC`: the logP came out at 1.11.

Regarding `O=NN(CCCl)C(=O)NCCCl`, the logP was 1.53.

In turn, `Brc1cc(Br)cc(Br)c1` registered a logP of 4.51.

Turning to `Cc1ccnc2c(O)cccc12`, the logP worked out at 2.41.

`CCCOC/C(=N\c1ccc(Cl)cc1C(F)(F)F)n1ccnc1` displayed a logP of 1.4.

In the case of `O=C(O)c1ccc(I)cc1`, the logP came out at 3.02.

As to `COc1ccc(C(C)=O)c(OC)c1OC`, the logP amounted to 1.63.

Molecule `C=CNP(=O)(NC=C)NC(=O)c1cccc(OC)c1` yielded a logP of 0.86.

On to `Cc1nc2ccccc2[nH]1`, for which the logP was 1.43.

Turning to `NC(=O)c1ccc(Br)cc1`, the logP worked out at 1.76.

In the case of `CCCl`, the logP was found to be 1.43.

Regarding `c1ccc(-c2cc(-c3ccccc3)c(NCCN3CCOCC3)nn2)cc1`, the logP is 3.38.

In the case of `Cc1cc2ccccc2[nH]1`, the logP worked out at 2.53.

In turn, `Cc1cccc(C)c1C` yielded a logP of 3.66.

On to `COc1cccc(C(C)=O)c1`, for which the logP worked out at 1.84.

Consider `O=C1OC(=O)c2ccccc21`, for which the logP is 1.6.

For the molecule `Nc1ccccc1S`, the logP amounted to 1.43.

In the case of `CCc1ccc(O)cc1`, the logP amounted to 2.58.

In turn, `COC(F)(F)C(Cl)Cl` showed a logP of 2.21.

As for `Nc1ccc(F)cc1F`, the logP worked out at 1.54.

`NC(=S)N1CCCCC1` registered a logP of 0.73.

As for `NS(=O)(=O)c1cccc2cccnc12`, the logP was 0.42.

`CCNC(=O)c1ccoc1` displayed a logP of 0.72.

As for `CCCCOCCCC`, the logP was 3.21.

In turn, `Ic1cn[nH]c1` showed a logP of 1.7.

For `O=[N+]([O-])c1ccc(C=NO)cc1`, the logP turned out to be 1.95.

The molecule `O=CNc1ccccc1` returned a logP of 1.15.

The molecule `Nc1cccc2cc3ccccc3nc12` gave a logP of 3.26.

The molecule `COCCNC(=S)C(F)(F)Cn1cnc([N+](=O)[O-])n1` showed a logP of 0.66.

`CCc1cccc(S(I)=C(N(C)C)N(C)C)c1` (centres undefined): the logP is 0.34.

For the molecule `COc1ccc(OC)c(CC(C)N)c1` (centres undefined), the logP came out at 1.72.

The molecule `COc1cc2c(c(OC)c1OC)-c1ccc(OC)c(=O)cc1C(N)CC2` (centres undefined) displayed a logP of 1.1.

Consider `OCc1cccc(C(F)(F)F)c1`, for which the logP came out at 2.24.

`FC(F)(F)c1ccccc1N=C1NCCN1` displayed a logP of 1.42.

With `O=C(O)CCCOc1ccc(Cl)cc1Cl`, the logP worked out at 3.53.

Take `CC(=O)c1ccc(C(=O)O)cc1`: the logP came out at 1.61.

`CC(O)C(C)O` (centres undefined): the logP is -0.92.

Regarding `O=S1(=O)C=Cc2ccccc21`, the logP worked out at 0.88.

For the molecule `CNc1nc(-c2ccccc2)c2ccccc2n1`, the logP was 3.58.

Turning to `O=C(O)C(Cc1ccccc1)n1cccc1` (centres undefined), the logP was 2.34.

`O=C1C=CC(=O)c2ccccc21` had a logP of 1.71.

For `CCOc1ccc(CC(=O)O)cc1`, the logP was 1.95.

Turning to `CC(C)C[C@H](N)C(=O)O`, the logP is -1.52.

Molecule `CN(C)N=Nc1ccc(C=CC(=O)O)cc1` yielded a logP of 2.66.

With `O=[N+]([O-])c1ccccc1C(F)(F)F`, the logP stood at 2.58.

With `O=NN1CCC(Cl)C(Cl)C1` (centres undefined), the logP came to 1.04.

Molecule `O=C1CCCCCCCCCCC1` had a logP of 4.1.

For the molecule `NC(=O)COc1ccccc1`, the logP amounted to 0.76.

With `CN(C=O)c1ccccc1`, the logP was determined as 1.09.

Turning to `OC[C@H]1O[C@@H](Oc2ccc(O)cc2)[C@H](O)[C@@H](O)[C@@H]1O`, the logP is -1.35.

Molecule `CC1=NOC(=O)C1=NNc1ccccc1Cl` displayed a logP of 2.6.

For the molecule `OCc1ccc(O)cc1`, the logP came to 0.25.

For `Oc1c(Br)cc(Br)c(O)c1Br`, the logP was determined as 4.37.

Regarding `CCCN(CCC)CC(=O)OCn1ncc2c(=O)[nH]cnc21`, the logP was 1.27.

`CC1=CC(=O)c2ccccc2C1=O` came in with a logP of 2.2.

On to `CCc1ccsc1`, for which the logP is 2.82.

In turn, `Cn1cnc([N+](=O)[O-])n1` yielded a logP of -0.68.

In turn, `CCCCCCCN` yielded a logP of 2.57.

For `CN(C)C(=O)Nc1ccc(C(C)(C)C)cc1`, the logP is 3.1.

In turn, `NC(=O)CCc1ccccn1` displayed a logP of -0.27.

The molecule `Cc1cc2occ(C)c2c2oc(=O)ccc12` had a logP of 3.02.

`O=[N+]([O-])c1ccc(F)cc1` returned a logP of 1.8.

Molecule `Clc1ccccc1-c1c(Cl)cccc1Cl` yielded a logP of 5.48.

Take `CCNC(=O)c1ccc(S(N)(=O)=O)cc1`: the logP came to 0.03.

On to `CCCOCc1ccccc1NC(=O)OCCN1CCCCC1`, for which the logP came to 3.34.

`O=C(O)c1ccc(O)cc1`: the logP is 1.58.

For the molecule `CNC(=O)Oc1ccc(Cl)c(C)c1`, the logP was determined as 2.57.

On to `CCCC(=O)O[C@]1(C(=O)CCl)[C@@H](C)C[C@H]2[C@@H]3CCC4=CC(=O)C=C[C@]4(C)[C@@]3(F)C(=O)C[C@@]21C`, for which the logP was found to be 3.76.

For `CC1=NS(=O)(=O)c2ccc(C(F)(F)F)cc2N1`, the logP was 1.59.

As to `c1cc2snnc2c2c1CCNC2`, the logP was 1.35.

The molecule `c1ccc(-c2cnc(-c3ccccc3)o2)cc1` gave a logP of 4.67.

Molecule `CC(=O)N[C@@H](Cc1c[nH]c2ccccc12)C(=O)N[C@@H](C)C(=O)N[C@H](C(N)=O)C(C)C` (Ac-Trp-Ala-Val-NH2) displayed a logP of 0.36.

Molecule `O=C(O)Cn1cccc1` showed a logP of 0.7.

Molecule `CC(C(=O)O)c1ccc(-c2ccccc2)c(F)c1` (centres undefined) came in with a logP of 4.16.

As for `CCC(C)(C)Cl`, the logP stood at 2.52.

In turn, `Oc1ccc(C(F)(F)F)cc1` showed a logP of 2.82.

Molecule `CC1OC(OC2C(O)CC(OC3C(O)CC(OC4CCC5(C)C(CCC6C5CC(O)C5(C)C(C7=CC(=O)OC7)CCC65O)C4)OC3C)OC2C)CC(OC(=O)C2OC(O)CC(O)C2O)C1O` (centres undefined) returned a logP of -1.77.

As to `CCCN(C)/N=N/c1ccc(C(N)=O)cc1`, the logP amounted to 2.17.

In the case of `CCC(=O)c1ccc(O)cc1`, the logP amounted to 2.03. The logP values of the last two molecules are within 0.2 log units of each other.

As for `Nc1nc(N)nc(-c2cccc([N+](=O)[O-])c2)n1`, the logP is 1.57.

As to `CCN(N=O)C(C)C`, the logP turned out to be 0.9.

Turning to `N=C(N)NCCCCc1ccccc1`, the logP came out at 1.59.

The molecule `CCOC(=O)C(C(=O)OCC)=C(C(=O)OCC)C(=O)OCC` came in with a logP of 2.63.

`CCCOC` came in with a logP of 1.21.

In turn, `S=C1CCCCCCN1` returned a logP of 1.

Molecule `c1ccc(-c2ncc[nH]2)cc1` displayed a logP of 1.88.

`O[C@@H]1CCCC[C@H]1O` gave a logP of 0.08.

For the molecule `CC(Cl)C(=O)NC(CO)C(O)c1ccc([N+](=O)[O-])cc1` (centres undefined), the logP was 0.98.

In turn, `Cc1cccc(OCC(=O)NNC(C)C)c1` gave a logP of 1.77.

The molecule `CCCCCOCc1cccc(NC(=O)OCCN2CCCCC2)c1` came in with a logP of 4.2.

In turn, `COc1cc(CCN)cc(OC)c1Br` returned a logP of 2.03.

`c1ccc(N=Nc2ccccc2)cc1` showed a logP of 3.82.

As for `O=C(O)Cc1ccc(O)cc1`, the logP came to 0.75.

In turn, `Cc1cccc(C)n1` gave a logP of 1.68.

For the molecule `CC(=O)c1ccc(C(C)=O)cc1`, the logP stood at 1.34.

Consider `CCOC(=O)C(F)(F)C(F)(F)F`, for which the logP turned out to be 2.12.

`CCCCOc1c(OC)cc(CCN)cc1OC`: the logP was 2.32.

As for `CCCNc1nc(NC)nc(SC(F)F)n1`, the logP stood at 3.28.

As to `COC(=O)NS(=O)(=O)c1ccc(N)cc1`, the logP is -0.27.

Turning to `CC(C)Cl`, the logP was 1.9.

As for `OCCCCCc1ccncc1`, the lipophilicity (logP) came out at 1.39.

On to `OCC(F)(F)F`, for which the logP amounted to 0.41.

For `CCOP(=S)(OCC)SCSC(C)(C)C`, the logP came to 4.48.

The molecule `CNC(=O)Oc1ccc(C=O)cc1` came in with a logP of 0.99.

Regarding `COc1ccc(-c2nc3cnccc3n2C)c(OC)c1`, the logP was found to be 2.66.

The molecule `[N-]=[N+]=CC(=O)NCC(N)=O` had a logP of -1.26.

For `O=C(O)CN1CCCCC1`, the log partition coefficient (logP) was -1.05.

On to `CCCCC1CC(C(=O)NC(C(C)Cl)C2OC(SC)C(O)C(O)C2O)N(CC)C1` (centres undefined), for which the logP came out at 3.21.

Take `COc1ccc(NS(=O)(=O)c2ccc(N)cc2)nn1`: the logP turned out to be 0.32.

Molecule `O=[N+]([O-])c1ccc2[nH]nnc2c1` returned a logP of 1.95.

For `N#Cc1ccc(OCC(=O)O)cc1`, the logP is 0.93.

For the origin of these results see the OPERA property sets (Mansouri et al. 2018).
